# From patent publication US20250282785A1, “PYRROLIDINONE DERIVATIVES AS INHIBITORS OF NF KAPPA B INDUCING KINASE” (priority 2022, published 2025)
# pIC50: −log10 of the molar value.
# Key:
# [1] = target: Recombinant Human NF-Kappab-Inducing Kinase (NIK/MAP3K14) (Homo sapiens, UniProt Q99558); experiment: Inhibition of auto-phosphorylation of recombinant human NIK/MAP3K14 (AlphaScreen); type: biochemical; conditions: NIK/MAP3K14 auto-phosphorylation, 5 microM ATP, 1 nM enzyme, 2 h at 25° C.; average of values; read-out: Assay 1 IC50
# In short: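 AlphaScreen read-out used anti-phospho-IKK Ser176/180 antibody after 2 h, 25 °C incubation of compound, 1 nM GST-NIK and 5 µM ATP (final DMSO 0.7%). Percent inhibition referenced to high (enzyme) and low (no enzyme, no ATP) controls; sigmoidal curve fitting gave IC50.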
# [2] = tested on: p-IKKα levels in L363 (NIK translocated multiple myeloma) cells; experiment: Effect of compounds on p-IKKα levels in L363 cells (AlphaLISA SureFire Ultra); type: cell-based; conditions: Homo sapiens, L-363; L363 cells, BAFF stimulated, MG132, 6 h; average of values; read-out: Assay 2 IC50
# In short: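 Phospho-IKKα (Ser 176/180) was quantified by AlphaLISA in lysed L363 cells after 6 h compound exposure (0.3% DMSO, 11 points, 1:3) alongside 250 ng/ml BAFF and 10 uM MG132, following overnight BAFF priming in low-serum DMEM. Duplicate curves were scaled between BAFF/DMSO/MG132 and unstimulated DMSO wells, then fitted sigmoidally for IC50.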
# Recombinant Human NF-Kappab-Inducing Kinase (NIK/MAP3K14), sequence (Q99558 whole entry): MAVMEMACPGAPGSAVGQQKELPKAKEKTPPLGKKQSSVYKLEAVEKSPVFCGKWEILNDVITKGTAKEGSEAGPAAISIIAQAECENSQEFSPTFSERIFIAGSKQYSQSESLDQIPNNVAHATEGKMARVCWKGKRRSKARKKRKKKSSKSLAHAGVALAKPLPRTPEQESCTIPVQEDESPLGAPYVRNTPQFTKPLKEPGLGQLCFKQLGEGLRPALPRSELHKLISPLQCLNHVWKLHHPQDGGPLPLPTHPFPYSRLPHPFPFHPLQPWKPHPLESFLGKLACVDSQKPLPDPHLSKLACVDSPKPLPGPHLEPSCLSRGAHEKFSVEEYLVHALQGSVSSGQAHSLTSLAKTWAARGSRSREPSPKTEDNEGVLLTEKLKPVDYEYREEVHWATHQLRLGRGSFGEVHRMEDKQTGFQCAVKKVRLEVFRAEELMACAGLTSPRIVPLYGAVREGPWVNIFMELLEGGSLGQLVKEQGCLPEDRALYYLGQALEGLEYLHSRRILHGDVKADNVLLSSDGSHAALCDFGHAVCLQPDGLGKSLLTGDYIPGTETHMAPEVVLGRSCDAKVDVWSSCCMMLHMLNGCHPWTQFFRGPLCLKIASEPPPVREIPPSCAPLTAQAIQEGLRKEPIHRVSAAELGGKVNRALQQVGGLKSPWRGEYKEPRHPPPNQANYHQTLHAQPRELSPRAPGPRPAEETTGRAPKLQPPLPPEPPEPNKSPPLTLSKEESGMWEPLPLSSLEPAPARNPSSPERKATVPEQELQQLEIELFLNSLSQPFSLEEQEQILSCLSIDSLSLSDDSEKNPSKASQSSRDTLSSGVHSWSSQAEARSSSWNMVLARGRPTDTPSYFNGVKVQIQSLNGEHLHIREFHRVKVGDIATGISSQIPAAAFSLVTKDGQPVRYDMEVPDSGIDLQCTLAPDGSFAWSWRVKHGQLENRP
SMILES,pIC50 [1],pIC50 [2]
"Cc1ncc(-c2cc(C(N)=O)nc(-c3cccc(-c4cc([C@]5(O)CCN(C)C5=O)on4)c3)c2)o1 [Example 186, (R)-6-(3-(5-(3-Hydroxy-1-methyl-2-oxopyrrolidin-3-yl)isoxazol-3-yl)phenyl)-4-(2-methyloxazol-5-yl)picolinamide]",> 7.00,6.30 to 7.00
"CCn1cc(-c2cc(C(N)=O)nc(-c3cccc(-c4cc([C@]5(O)CCN(C)C5=O)on4)c3)c2)c(C)n1 [Example 187, (R)-4-(1-Ethyl-3-methyl-1H-pyrazol-4-yl)-6-(3-(5-(3-hydroxy-1-methyl-2-oxopyrrolidin-3-yl)isoxazol-3-yl)phenyl)picolinamide]",> 7.00,6.30 to 7.00
"CCn1nc(C(F)(F)F)cc1-c1cc(C(N)=O)nc(-c2cccc(-c3cc([C@]4(O)CCN(C)C4=O)on3)c2)c1 [Example 188, (R)-4-(1-Ethyl-3-(trifluoromethyl)-1H-pyrazol-5-yl)-6-(3-(5-(3-hydroxy-1-methyl-2-oxopyrrolidin-3-yl)isoxazol-3-yl)phenyl)picolinamide]",> 7.00,< 6.30
"COCCn1cc(-c2cc(C(N)=O)nc(-c3cccc(-c4cc([C@]5(O)CCN(C)C5=O)on4)c3)c2)cn1 [Example 189, (R)-6-(3-(5-(3-Hydroxy-1-methyl-2-oxopyrrolidin-3-yl)isoxazol-3-yl)phenyl)-4-(1-(2-methoxyethyl)-1H-pyrazol-4-yl)picolinamide]",> 7.00,6.30 to 7.00
"CN1CC[C@@](O)(c2cc(-c3cccc(-c4cc(-c5c[nH]nc5C5CC5)cc(C(N)=O)n4)c3)no2)C1=O [Example 190, (R)-4-(3-Cyclopropyl-1H-pyrazol-4-yl)-6-(3-(5-(3-hydroxy-1-methyl-2-oxopyrrolidin-3-yl)isoxazol-3-yl)phenyl)picolinamide]",> 7.00,< 6.30
"COc1ncc(-c2cc(C(N)=O)nc(-c3cccc(-c4cc([C@]5(O)CCN(C)C5=O)on4)c3)c2)s1 [Example 191, (R)-6-(3-(5-(3-Hydroxy-1-methyl-2-oxopyrrolidin-3-yl)isoxazol-3-yl)phenyl)-4-(2-methoxythiazol-5-yl)picolinamide]",> 7.00,6.30 to 7.00
"Cc1cn(-c2cccc(-c3cc([C@]4(O)CCN(C)C4=O)on3)c2)nc1C(N)=O [Example 192, (R)-1-(3-(5-(3-Hydroxy-1-methyl-2-oxopyrrolidin-3-yl)isoxazol-3-yl)phenyl)-4-methyl-1H-pyrazole-3-carboxamide]",> 7.00,< 6.30
"CN1CC[C@@](O)(c2cc(-c3cccc(-n4ccc(C(N)=O)n4)c3)no2)C1=O [Example 193, (R)-1-(3-(5-(3-Hydroxy-1-methyl-2-oxopyrrolidin-3-yl)isoxazol-3-yl)phenyl)-1H-pyrazole-3-carboxamide]",> 7.00,< 6.30
"CN1CC[C@@](O)(c2cc(-c3cccc(-n4cc(C(N)=O)cn4)n3)no2)C1=O [Example 194, (R)-1-(6-(5-(3-Hydroxy-1-methyl-2-oxopyrrolidin-3-yl)isoxazol-3-yl)pyridin-2-yl)-1H-pyrazole-4-carboxamide]",< 6.30,< 6.30
"CN1CC[C@@](O)(c2cc(-c3cccc(-n4cc(C(N)=O)c(N)n4)n3)no2)C1=O [Example 195, (R)-3-Amino-1-(6-(5-(3-Hydroxy-1-methyl-2-oxopyrrolidin-3-yl)isoxazol-3-yl)pyridin-2-yl)-1H-pyrazole-4-carboxamide]",> 7.00,< 6.30
"CN1CC[C@@](O)(c2cc(-c3cccc(-c4cccc5c(=O)[nH]ccc45)n3)no2)C1=O [Example 196, (R)-5-(6-(5-(3-Hydroxy-1-methyl-2-oxopyrrolidin-3-yl)isoxazol-3-yl)pyridin-2-yl)isoquinolin-1(2H)-one]",> 7.00,< 6.30
"CN1CC[C@@](O)(c2cc(-c3cccc(-c4cccc5c(=O)[nH]cnc45)c3)no2)C1=O [Example 197, (R)-8-(3-(5-(3-Hydroxy-1-methyl-2-oxopyrrolidin-3-yl)isoxazol-3-yl)phenyl)quinazolin-4(3H)-one]",< 6.30,< 6.30
"CN1CC[C@@](O)(c2cc(-c3cccc(-c4cc(C(N)=O)ccn4)n3)no2)C1=O [Example 198, (R)-6′-(5-(3-Hydroxy-1-methyl-2-oxopyrrolidin-3-yl)isoxazol-3-yl)-[2,2′-bipyridine]-4-carboxamide]",6.30 to 7.00,< 6.30
"CN1CC[C@@](O)(c2cc(-c3cccc(-c4nc(C(N)=O)cs4)c3)no2)C1=O [Example 204, (R)-2-(3-(5-(3-Hydroxy-1-methyl-2-oxopyrrolidin-3-yl)isoxazol-3-yl)phenyl)thiazole-4-carboxamide]",> 7.00,< 6.30
"CN1CC[C@@](O)(c2cc(-c3cccc(-c4csc(C(N)=O)n4)c3)no2)C1=O [Example 205, (R)-4-(3-(5-(3-Hydroxy-1-methyl-2-oxopyrrolidin-3-yl)isoxazol-3-yl)phenyl)thiazole-2-carboxamide]",> 7.00,< 6.30
"CN1CC[C@@](O)(c2cc(-c3cccc(-c4nc(C(N)=O)c(N)s4)c3)no2)C1=O [Example 206, (R)-5-Amino-2-(3-(5-(3-hydroxy-1-methyl-2-oxopyrrolidin-3-yl)isoxazol-3-yl)phenyl)thiazole-4-carboxamide]",> 7.00,> 7.00
"CN1CC[C@@](O)(c2cc(-c3cccc(-c4ccc(C(N)=O)o4)c3)no2)C1=O [Example 207, (R)-5-(3-(5-(3-Hydroxy-1-methyl-2-oxopyrrolidin-3-yl)isoxazol-3-yl)phenyl)furan-2-carboxamide]",> 7.00,< 6.30
"CN1CC[C@@](O)(c2cc(-c3cccc(-c4nc(C(N)=O)c(C5CC5)s4)c3)no2)C1=O [Example 208, (R)-5-Cyclopropyl-2-(3-(5-(3-hydroxy-1-methyl-2-oxopyrrolidin-3-yl)isoxazol-3-yl)phenyl)thiazole-4-carboxamide]",> 7.00,6.30 to 7.00
"CNc1sc(-c2cccc(-c3cc([C@]4(O)CCN(C)C4=O)on3)c2)nc1C(N)=O [Example 209, (R)-2-(3-(5-(3-Hydroxy-1-methyl-2-oxopyrrolidin-3-yl)isoxazol-3-yl)phenyl)-5-(methylamino)thiazole-4-carboxamide]",> 7.00,> 7.00
"CN1CC[C@@](O)(c2cc(-c3cccc(-c4nc(C(N)=O)c(NC5COC5)s4)c3)no2)C1=O [Example 210, (R)-2-(3-(5-(3-Hydroxy-1-methyl-2-oxopyrrolidin-3-yl)isoxazol-3-yl)phenyl)-5-(oxetan-3-ylamino)thiazole-4-carboxamide]",> 7.00,> 7.00
"CN1CC[C@@](O)(c2cc(-c3cccc(-c4nc(C(N)=O)c(Nc5cnn(C)c5)s4)c3)no2)C1=O [Example 211, (R)-2-(3-(5-(3-Hydroxy-1-methyl-2-oxopyrrolidin-3-yl)isoxazol-3-yl)phenyl)-5-((1-methyl-1H-pyrazol-4-yl)amino)thiazole-4-carboxamide]",> 7.00,> 7.00
"CN1CC[C@@](O)(c2cc(-c3cccc(-c4ncc(C(N)=O)s4)c3)no2)C1=O [Example 212, (R)-2-(3-(5-(3-hydroxy-1-methyl-2-oxopyrrolidin-3-yl)isoxazol-3-yl)phenyl)thiazole-5-carboxamide]",< 6.30,< 6.30
"COc1ncccc1Nc1sc(-c2cccc(-c3cc([C@]4(O)CCN(C)C4=O)on3)c2)nc1C(N)=O [Example 213, (R)-2-(3-(5-(3-Hydroxy-1-methyl-2-oxopyrrolidin-3-yl)isoxazol-3-yl)phenyl)-5-((2-methoxypyridin-3-yl)amino)thiazole-4-carboxamide]",> 7.00,> 7.00
"CN1CC[C@@](O)(c2cc(-c3cccc(-c4nc(C(N)=O)c(Br)s4)c3)no2)C1=O [Example 215, (R)-5-Bromo-2-(3-(5-(3-hydroxy-1-methyl-2-oxopyrrolidin-3-yl)isoxazol-3-yl)phenyl)thiazole-4-carboxamide]",> 7.00,< 6.30
"CC(=O)N1CC(Nc2sc(-c3cccc(-c4cc([C@]5(O)CCN(C)C5=O)on4)c3)nc2C(N)=O)C1 [Example 216, (R)-5-((1-Acetylazetidin-3-yl)amino)-2-(3-(5-(3-hydroxy-1-methyl-2-oxopyrrolidin-3-yl)isoxazol-3-yl)phenyl)thiazole-4-carboxamide]",> 7.00,< 6.30
"Cc1sc(-c2cccc(-c3cc([C@]4(O)CCN(C)C4=O)on3)c2)nc1C(N)=O [Example 217, (R)-2-(3-(5-(3-Hydroxy-1-methyl-2-oxopyrrolidin-3-yl)isoxazol-3-yl)phenyl)-5-methylthiazole-4-carboxamide]",> 7.00,6.30 to 7.00
"CCc1sc(-c2cccc(-c3cc([C@]4(O)CCN(C)C4=O)on3)c2)nc1C(N)=O [Example 218, (R)-5-Ethyl-2-(3-(5-(3-hydroxy-1-methyl-2-oxopyrrolidin-3-yl)isoxazol-3-yl)phenyl)thiazole-4-carboxamide]",> 7.00,6.30 to 7.00
"CC(C)c1sc(-c2cccc(-c3cc([C@]4(O)CCN(C)C4=O)on3)c2)nc1C(N)=O [Example 219, (R)-2-(3-(5-(3-Hydroxy-1-methyl-2-oxopyrrolidin-3-yl)isoxazol-3-yl)phenyl)-5-isopropylthiazole-4-carboxamide]",> 7.00,< 6.30
